Columns and labels:
[1] = tested on: gut microbiota; test: 16S rRNA sequencing of gut microbiota; type: in vivo, rat; details: DOX group vs CON group
Method: 16S rRNA sequencing and bioinformatics analysis were performed by OEbiotech Co. Ltd. (Shanghai, China). Total genomic DNA was extracted from cecal contents. The V3–V4 hypervariable region of the 16S rRNA gene was amplified using primers 343F and 798R. Clean reads were processed to remove primer sequences and clustered into operational taxonomic units (OTUs) at 97% similarity using Vsearch software. OTUs were annotated by comparison against the […]. Alpha diversity was assessed using the Simpson index. Beta diversity was evaluated using Bray–Curtis distances and visualized by principal coordinates analysis (PCoA). Differential abundance analysis of gut microbiota associated with DOX-induced CHF was performed using linear discriminant analysis effect size (LEfSe) and random forest algorithms.

[2] = tested on: PAH activity in AML12 cells; type: cell-based
Method: Serum biochemical parameters including brain natriuretic peptide (BNP), creatine kinase (CK), lactate dehydrogenase (LDH), alanine aminotransferase (ALT), and aspartate aminotransferase (AST) were measured using commercial ELISA kits (Nanjing Jiancheng Bioengineering Institute, Nanjing, China) according to the manufacturer’s instructions. Superoxide dismutase (SOD), and malondialdehyde (MDA) levels in liver and heart tissues were measured using assay kits from Aifang Biotechnology (Changsha, China). Phenylalanine and tyrosine concentrations in the cell were determined using an ELISA kit from Abmart (Shanghai, China).
Mouse hepatocellular cell lines (AML12), purchased from the Shanghai Cell Bank of Chinese Academy of Sciences (Shanghai, China), were cultured in Dulbecco’s Modified Eagle Medium (DMEM) supplemented with 10% fetal bovine serum (FBS) and 2 mM L-glutamine and 1% pyruvate and maintained at 37 °C in a […], 5% CO2 incubator. Cells were seeded at a density of 5 × 10^5 cells/well in 6-well plates. […] Cells’ survival rate was detected by Cell Counting Kit-8 (CCK8) Reagents (Thermo Scientific, Singapore).

[3] = tested on: urinary metabolites of DOX-induced CHF rats; test: Urine metabolomics (UHPLC-Q-TOF/MS); type: in vivo, rat
Method: Urine samples (200 μL) were mixed with 200 μL of protein precipitant (methanol: acetonitrile, 1:1) and vortexed for 30 s at 4 °C. Samples were sonicated for 10 min in an ice bath, then incubated at – 20 °C for 1 h. After centrifugation at 13,000 rpm for 15 min at 4 °C, 200 μL of supernatant was transferred to sample vials for analysis. A pooled quality control (QC) sample was prepared by combining 10 μL of supernatant from each sample. Sample analysis was performed using a Waters H-Class UPLC system coupled to a Triple TOF 6600 mass spectrometer (AB SCIEX, USA). Chromatographic separation was achieved on an ACQUITY UPLC HSS T3 column (2.1 × 100 mm, 1.7 μm; Waters) using 0.1% formic acid in water (mobile phase A) and acetonitrile (mobile phase B). […] Mass spectrometry was performed in both positive and negative ionization modes. Key parameters included: ion spray voltage, 5500/− 4500 V; m/z range, 60–1000; gas 1 and 2, 60 psi; curtain gas, 35 psi; accumulation time, 1.2 s; source temperature, 550 °C; declustering potential, 60 V. Information-dependent acquisition (IDA) was used with the following settings: m/z range, 50–1000; accumulation time, 0.05 s; collision energy, 40 ± 20 V. Data processing was performed using XC-MS plus software for peak alignment, extraction, and normalization. Metabolite identification was carried out using the MetDNA database. Multivariate statistical analysis, including principal component analysis (PCA) and orthogonal partial least squares discriminant analysis (OPLS-DA), was conducted using MetaboAnalyst 5.0. Differential metabolites were identified based on variable importance in projection (VIP) scores > 1.0 and P < 0.05. Fold change (FC) values were used to determine up- or down-regulation. Metabolic pathway analysis was performed using MetaboAnalyst 5.0, with significance set at P < 0.05.

## COc1cccc2c1C(=O)c1c(O)c3c(c(O)c1C2=O)C[C@@](O)(C(=O)CO)C[C@@H]3O[C@H]1C[C@H](N)[C@H](O)[C@H](C)O1 [DOX, Doxorubicin]
[1]
  Muribaculaceae abundance: decreased
[1]; p < 0.01
  relative abundance of Proteobacteria: significantly increased
[2]
  phenylalanine levels in AML12 cells: significant increases
[2]; AML12 cells, DOX vs CON, neomangiferin vs DOX, dose-dependent
  phenylalanine metabolism (Phe level, Phe/Tyr ratio): significantly suppressed
[3]; DOX group vs CON group
  urinary levels of 4-(2-aminophenyl)-2,4-dioxobutanoate, hippurate, phenylacetylglycine, 5-methoxyindoleacetate, phenylpyruvate, and phenylalanine: significantly increased
  urinary levels of indole-3-acetaldehyde, urea, anthranilate, indoleacetic acid, tryptamine, N-acetyl-L-glutamate, tyrosine, and glutamate: significantly decreased
[3]; day 10 after DOX administration, P < 0.001
  urinary phenylalanine level: sharp increase

Reference: paper PMC12794274, “Therapeutic potential of Sheng-Xian-Tang in doxorubicin-induced chronic heart failure by regulation of phenylalanine metabolism disruption” (Chinese Medicine, 2026)
